# Literature values in patent publication US20050255458A1, “Drug discovery assays based on the biology of chronic disease” (priority 2002, published 2005).
# Read-outs that look alike come from different tables or passages of the source.
# Assays:
# [1] = system: ‘Langerhans’ cells in nasal mucosa; details: topical; cited from earlier work
# [2] = system: DC; details: inhaled; cited from earlier work
# [3] = system: NF-κB; details: cited from earlier work
# [4] = system: LDLR(−/−) mice; details: ≈5 mg/kg/day, 18 weeks; cited from earlier work
# [5] = system: TF; details: cited from earlier work
# [6] = system: human lymphocytes; details: 0.1 and 1 mM; cited from earlier work
# [7] = system: TF; details: cited from earlier work; remark: listed apart in the source
# [8] = system: c-Rel/p65; details: cited from earlier work
# [9] = system: leukocytes; details: 5-20 mg/kg/day, oral; cited from earlier work
# [10] = system: TF; details: 0.5 mg/kg/day, cited from earlier work
# [11] = system: leukocytes; details: low concentrations, 20 hours; cited from earlier work
# [12] = system: Moloney murine leukemia virus (MMuLV); details: cited from earlier work
# [13] = system: Rous sarcoma virus (RSV); details: cited from earlier work
# [14] = system: TF antigen; details: cited from earlier work
# [15] = biological target: T1, ACE (Homo sapiens, UniProt P12821); set-up: randomly assigned 9,297 high-risk patients; from tissue; host or cells: patients, in vivo; details: 5 mg/day, vs placebo; cited from earlier work
# [16] = biological target: T2, ACE (Mus musculus, UniProt P09470); details: zofenopril 0.05 or 1, captopril 5, enalapril 0.5 mg/kg/day; 29 weeks; cited from earlier work
# T2 sequence (P09470 35-1312): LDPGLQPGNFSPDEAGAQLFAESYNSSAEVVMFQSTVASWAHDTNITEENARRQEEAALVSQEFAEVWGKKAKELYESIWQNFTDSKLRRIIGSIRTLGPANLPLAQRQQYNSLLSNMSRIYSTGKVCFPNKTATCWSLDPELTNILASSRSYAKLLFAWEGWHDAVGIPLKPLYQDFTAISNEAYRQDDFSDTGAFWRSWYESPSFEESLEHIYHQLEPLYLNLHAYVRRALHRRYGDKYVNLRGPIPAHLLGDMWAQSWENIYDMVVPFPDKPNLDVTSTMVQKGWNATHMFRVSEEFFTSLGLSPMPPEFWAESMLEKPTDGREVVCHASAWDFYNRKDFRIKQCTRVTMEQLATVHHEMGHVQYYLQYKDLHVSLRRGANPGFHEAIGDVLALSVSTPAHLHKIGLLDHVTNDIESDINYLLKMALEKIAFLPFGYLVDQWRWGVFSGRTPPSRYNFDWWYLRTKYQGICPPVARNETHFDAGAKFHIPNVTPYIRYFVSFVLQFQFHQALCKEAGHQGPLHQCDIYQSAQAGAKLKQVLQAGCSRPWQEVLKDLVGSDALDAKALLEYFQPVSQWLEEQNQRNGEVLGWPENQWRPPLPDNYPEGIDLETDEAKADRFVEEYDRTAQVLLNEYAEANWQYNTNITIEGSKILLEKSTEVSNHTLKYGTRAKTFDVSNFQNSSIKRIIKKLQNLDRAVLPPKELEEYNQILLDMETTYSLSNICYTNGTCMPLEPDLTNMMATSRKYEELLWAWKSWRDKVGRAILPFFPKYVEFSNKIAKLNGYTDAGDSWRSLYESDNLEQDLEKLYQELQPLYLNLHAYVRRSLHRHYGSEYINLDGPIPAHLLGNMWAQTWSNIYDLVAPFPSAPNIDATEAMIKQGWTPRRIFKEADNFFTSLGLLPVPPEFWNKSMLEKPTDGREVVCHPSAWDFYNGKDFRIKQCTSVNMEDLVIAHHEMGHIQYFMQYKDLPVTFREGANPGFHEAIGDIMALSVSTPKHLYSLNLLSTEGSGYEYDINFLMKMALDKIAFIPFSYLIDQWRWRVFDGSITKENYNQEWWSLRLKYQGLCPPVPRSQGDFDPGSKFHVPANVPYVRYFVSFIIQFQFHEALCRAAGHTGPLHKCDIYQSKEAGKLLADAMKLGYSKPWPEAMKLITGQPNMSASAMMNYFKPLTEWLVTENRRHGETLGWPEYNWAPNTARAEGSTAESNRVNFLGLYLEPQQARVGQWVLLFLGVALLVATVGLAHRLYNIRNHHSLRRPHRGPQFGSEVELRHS
# [17] = system: NF-κB; details: rabbit, in vivo; cited from earlier work
# [18] = biological target: T1, ACE; set-up: from tissue; host or cells: patients, in vivo; details: 5 or 10 mg/day, 4 years, vs placebo; cited from earlier work
# [19] = biological target: T1, ACE; set-up: randomly assigned 9,297 high-risk patients; from tissue; host or cells: patients, in vivo; details: cited from earlier work
# [20] = biological target: T1, ACE; set-up: randomly assigned 9,297 high-risk patients; from tissue; host or cells: patients, in vivo; details: cited from earlier work; remark: listed apart in the source
# [21] = system: apoE(−/−) mice; details: ramipril 1 mg/kg/day, 10 weeks; cited from earlier work
# [22] = system: TF mRNA; details: obese mice, 10 to 20 weeks of age; cited from earlier work
# [23] = system: TF; details: in vitro treatment; cited from earlier work
# [24] = system: neutrophils; details: cited from earlier work
# [25] = system: apolipoprotein E deficient mice; details: 0.1 ml of 10^−7M per mouse, intraperitoneally, once a day for 30 days; cited from earlier work
# [26] = system: apoE(−/−) mice; details: 500 or 1,000 ng/min/kg, 1 month; cited from earlier work
# [27] = system: NF-κB; details: cited from earlier work; remark: listed apart in the source
# T1 sequence (P12821 30-1306): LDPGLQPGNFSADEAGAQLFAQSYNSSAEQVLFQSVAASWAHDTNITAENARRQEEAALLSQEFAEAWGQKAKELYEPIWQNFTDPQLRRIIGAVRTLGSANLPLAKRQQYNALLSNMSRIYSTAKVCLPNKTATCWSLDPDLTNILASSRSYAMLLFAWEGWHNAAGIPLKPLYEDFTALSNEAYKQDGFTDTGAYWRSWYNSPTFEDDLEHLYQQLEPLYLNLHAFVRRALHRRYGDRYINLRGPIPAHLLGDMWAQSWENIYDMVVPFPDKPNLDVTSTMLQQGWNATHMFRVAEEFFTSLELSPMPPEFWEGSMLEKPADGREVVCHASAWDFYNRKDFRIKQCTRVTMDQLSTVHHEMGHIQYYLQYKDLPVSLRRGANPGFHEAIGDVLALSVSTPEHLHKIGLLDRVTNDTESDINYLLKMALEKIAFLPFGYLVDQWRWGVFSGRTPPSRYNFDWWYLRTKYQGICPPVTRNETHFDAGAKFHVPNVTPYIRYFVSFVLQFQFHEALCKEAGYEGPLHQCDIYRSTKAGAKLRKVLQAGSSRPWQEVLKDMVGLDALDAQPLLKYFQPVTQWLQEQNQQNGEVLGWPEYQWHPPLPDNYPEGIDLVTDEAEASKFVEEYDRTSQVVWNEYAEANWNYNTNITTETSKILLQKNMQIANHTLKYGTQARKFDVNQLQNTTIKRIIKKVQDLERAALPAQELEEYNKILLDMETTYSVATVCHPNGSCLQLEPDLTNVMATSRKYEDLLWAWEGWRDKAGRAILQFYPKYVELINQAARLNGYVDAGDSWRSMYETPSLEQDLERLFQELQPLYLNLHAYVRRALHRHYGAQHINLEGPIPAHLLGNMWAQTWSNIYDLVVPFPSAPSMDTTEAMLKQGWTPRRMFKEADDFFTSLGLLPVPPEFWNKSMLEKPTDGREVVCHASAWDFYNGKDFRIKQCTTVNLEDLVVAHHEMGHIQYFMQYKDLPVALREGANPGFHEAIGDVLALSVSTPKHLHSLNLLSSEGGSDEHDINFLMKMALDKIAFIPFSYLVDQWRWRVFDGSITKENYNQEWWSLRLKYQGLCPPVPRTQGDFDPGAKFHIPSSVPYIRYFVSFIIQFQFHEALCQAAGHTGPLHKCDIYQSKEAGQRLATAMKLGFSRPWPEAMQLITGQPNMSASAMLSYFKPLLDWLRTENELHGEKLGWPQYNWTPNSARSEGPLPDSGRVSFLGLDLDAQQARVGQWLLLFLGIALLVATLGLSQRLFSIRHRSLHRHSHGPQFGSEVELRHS
compound,measurement,setting,value
"CCC(=O)O[C@]1(C(=O)SCF)[C@H](C)C[C@H]2[C@@H]3C[C@H](F)C4=CC(=O)C=C[C@]4(C)[C@@]3(F)[C@@H](O)C[C@@]21C [FP, Fluticasone propionate]",number of antigen-presenting ‘Langerhans’ cells in nasal mucosa,[1],decreased the number of the antigen-presenting ‘Langerhans’ cells
same,number of DC in asthma,[2],decreased the number of DC in asthma
same,NF-κB activation,[3],decreases NF-κB activation
"CC(=O)Oc1ccccc1C(=O)O [aspirin, Acetylsalicylic Acid]",decrease in NF-κB binding activity in the aortas,[4],34%
same,decrease in the positive area for macrophages,[4],57%
same,increase in the positive area for SMC,[4],77%
same,LPS-induced increase in TF mRNA and protein level,[5],dose-dependently inhibited
same,migration of human lymphocytes,[6],stimulated migration of human lymphocytes
same,TF staining area in plaque,[7]; non-smokers,2.0±2%
same,TF staining area in plaque,[7]; smokers,4.4±4%
same,LPS-induced translocation of c-Rel/p65,[8],inhibited the LPS-induced translocation of c-Rel/p65
same,increase of leukocyte migration relative to control values,[9],20-70%
same,increase in TF concentration compared to non-smoker mice (Western blotting),[10],1.3±0.17 fold
same,TF immunoreactive area,"[10]; smoker mice, 8 weeks",6.5±4.5%
same,cell migration,[11],increased cell migration
C/C=C/C/C=C/CCC(=O)[C@H]1O[C@H]1C(N)=O [cerulenin],virus production,[12],drastically decreased
same,virus production,[13],inhibited
CCOC(=O)[C@H](CCc1ccccc1)N[C@@H](C)C(=O)N1CCC[C@H]1C(=O)O [enalapril],plasma TF antigen level,[14]; day 3,205±14
same,plasma TF antigen level,[14]; day 28,169±13
same,"changes in mean absolute diameter, minimum absolute diameter, and percent diameter stenosis",[15],no significant difference
same,total lesion area compared to placebo,[16],no significant decrease in lesion area
CCOC(=O)[C@H](CCc1ccccc1)N[C@@H](C)C(=O)N1Cc2ccccc2C[C@H]1C(=O)O [quinapril],NF-κB activity in atherosclerotic vessels,[17],decreased the NF-κB activity
CCOC(=O)[C@H](CCc1ccccc1)N[C@@H](C)C(=O)N1[C@H](C(=O)O)C[C@@H]2CCC[C@@H]21 [ramipril],"changes in thickness of the common carotid artery wall, or carotid plaque height",[18],no significant difference
same,progression slope of the mean maximum carotid intimal medial thickness (IMT),"[19]; 10 mg/day, 4.5 years",0.0137±0.0024 mm/year
same,decrease of progression of carotid intima media thickness,[19]; at 4.5 years,0.008 mm per year
same,rate of death from cardiovascular causes,"[20]; 10 mg/day, average follow up 4.5 years",6.1%
same,rate of cardiac arrest,[20]; 10 mg/day,0.8%
same,rate of complications related to diabetes,[20]; 10 mg/day,6.4%
same,rate of death from any cause,[20]; 10 mg/day,10.4%
same,rate of heart failure,[20]; 10 mg/day,9.1%
same,rate of myocardial infarction,[20]; 10 mg/day,9.9%
same,rate of revascularization procedures,[20]; 10 mg/day,16.3%
same,rate of stroke,[20]; 10 mg/day,3.4%
same,RR of cardiac arrest,[20]; vs placebo,0.62
same,RR of complications related to diabetes,[20]; vs placebo,0.84
same,RR of death from any cause,[20]; vs placebo,0.84
same,RR of death from cardiovascular causes,[20]; vs placebo,0.74
same,RR of heart failure,[20]; vs placebo,0.77
same,RR of myocardial infarction,[20]; vs placebo,0.80
same,RR of revascularization procedures,[20]; vs placebo,0.85
same,RR of stroke,[20]; vs placebo,0.68
same,lesion area,[21],"6,679±978 μm^2"
CCOC(=O)[C@H](CCc1ccccc1)N[C@H]1CS[C@H](c2cccs2)CN(CC(=O)O)C1=O [temocapril],TF mRNA in cardiac tissue,[22],attenuated the increase in TF mRNA
"angiotensin II (DRVYIHPF; Angiotensin-2; UniProt P01019 25-32, looked up)",TF antigen and mRNA,[23],dose-depended increase in TF antigen and mRNA
same,velocity,[24]; concentration of 10^−11,88 % of maximum velocity
same,concentration of peak velocity,[24]; neutrophils,10^−10
same,lesion area,[25],"5,000 μm^2"
same,development of AAA,[26],promotes the development of AAA
same,rate of atherosclerotic lesion formation in the thoracic aorta,[26],increases the rate of atherosclerotic lesion formation
same,NF-κB activation,[27],increased NF-κB activation
